Assay results as given in publication PMC10597491 (PLOS ONE, 2023).
pIC50: −log10 of the molar value. Bridge positions count the residues as written; N and C are the ends. Ends that are not written are not given here.

Molecular target: T1, cynomolgus IL-7Rα (Macaca fascicularis, UniProt Q38IC7)
T1 construct: cynomolgus IL-7Rα(aa 21–235)-His6, Sino Biological Cat# 90332-C08H; His6 (C); purchased Sino Biological 90332-C08H
T1 sequence (Q38IC7 21-235): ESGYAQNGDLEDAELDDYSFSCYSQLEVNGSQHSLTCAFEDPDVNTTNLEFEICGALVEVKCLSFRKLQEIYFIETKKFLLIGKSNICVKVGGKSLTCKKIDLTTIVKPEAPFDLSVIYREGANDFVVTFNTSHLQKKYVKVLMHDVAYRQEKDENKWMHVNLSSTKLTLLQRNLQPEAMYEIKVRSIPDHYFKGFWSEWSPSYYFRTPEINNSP
Assay: Competition binding ELISA, cynomolgus IL-7Rα ECD
Details: immobilized cynomolgus IL-7Rα-His6 ECD; biotinylated peptide/NA-HRP tracer; read-out: Competition ELISA IC50, IL-7Rα Cyno
From the text: (A, B) Determination of IC50 values in a competition ELISA for compound binding to human and cyno IL-7Rα and γc. The assay format is IL-7Rα-(His)6-tagged ECD or Fc-γc ECD immobilized on 96-well plates. Tracers are C-terminal biotinylated forms of the reference IL-7Rα and γc peptide ligands, each pre-complexed with Neutravidin-HRP (NA-HRP). (C, D) Label-free measurement of the equilibrium dissociation constant (KD) for peptide binding to IL-7Rα and γc extracellular domains with peptides was performed by biolayer interferometry as detailed in methods. Red lines depict 1:1 binding fit from Gator™ software. Blue lines represent individual BLI sensogram data taken every 0.1 seconds.
Binding was determined using a competition binding ELISA. Microtiter plates (Immulon 4HBX flat bottom 96-well) were coated with 50 μL of […] human ECDs: IL-7Rα(aa 21–236)-His6, Sino Biological Cat# 10975-H08H; cynomolgus IL-7Rα(aa 21–235)-His6, Sino Biological Cat# 90332-C08H; human IL-2Rα(aa 23–254)-Fc, Acro Cat# ILG-H5256; cynomolgus IL-2Rα(aa 23–254)-Fc, made in-house, in PBS overnight at 4°C. […] Plates were washed with cold wash buffer, and bound tracer was detected using TMB One Component HRP substrate and Stop Solution (Surmodics Cat# TMBW-1000-01 and LSTP-0100-01). Absorbance at 450 nm was read using Agilent BioTek Synergy HTX Multimode Reader.

Substance: Ac-GWGIPWCTLDPGSLQCAWLGKHGGGGSGGVVCQDWEGVELCWQGG (disulfide 7-16, 32-41) [MDK1472]
- pIC50: 6.72
